In patent US5246928A, “Thiadiazinones for stimulating cardiac activity” (Smith Kline & French Laboratories Limited, priority 1991, dated 1993):
pIC50: −log10 of the molar value.

Key:
[1] = tested on: left ventricular dp/dt max; assay: Cardiac Stimulant Activity - In vivo (Conscious Dogs): left ventricular dp/dt max; design: species or system dog
Protocol: Cardiac Stimulant Activity-In vivo (Conscious Dogs)
Oral administration caused positive inotropic responses at doses of 0.05 mg/kg and below.

[2] = tested on: PDE (Peak III); assay: Inhibition of PDE (Peak III) from cat heart; details: read-out: IC50 × 10^-6, 1 μM cyclic AMP, pH 7.5, 37°
Protocol: (§1) The enzyme was assayed by incubation at 37° for 4-30 min in 50 mM Tris, 5 mM MgCl2, pH 7.5 with [3-H] cyclic nucleotide (4×10^5 disintegrations min^-1) and [14-C] nucleotide 5' monophosphate (3×10^3 disintegrations min^-1). The assay was stopped by boiling, and the [3-H] […] The reaction mixture was diluted with 0.5 ml 100 mM HEPES (N-2-Hydroxyethylpiperazine-N'-2-ethanesulfonic acid), 100 mM NaCl, pH 8.5, and applied to the column. […] The recovery of product as judged by [14-C] recovery was approximately 80%. All assays were linear with time of incubation and concentration of enzyme over the range used in these experiments.

[3] = tested on: histamine-induced bronchoconstriction; assay: Bronchodilatation in vivo: histamine-induced bronchoconstriction in anaesthetised guinea-pigs; design: species or system guinea-pig (Dunkin Hartley); details: guinea-pig, i.v.; in words
Protocol: Male guinea-pigs of the Dunkin Hartley strain (530 g±6 g) were anaesthetised with Sagatal (pentobarbital sodium) (90 mg/kg i.p.). Airway resistance was measured using a modification of the classical Konzett-Rossler technique (Versuchsanordnung zu Untersuchungen an der Bronchialmuskulatur. Naunyn-Schmiedebergs Arch. Exp. Path. Pharmak., 195: pp 71-74, (1940)). A dose of histamine which gave approximately 150% increase in airway resistance was selected for i.v. administration. Bolus doses of the compound of Example 1 were administered (i.v.) one minute before the histamine challenge.
The threshold dose for this compound was 1×10^-8 mol/kg.

[4] = tested on: left ventricular contractility; assay: Cardiac Stimulant Activity - In vivo (Anaesthetised Cats): increase in left ventricular dp/dt max, i.v.; design: species or system cat; details: Felis catus, iv, read-out: ED50 (dose to increase left ventricular dp/dt max by 50%), pretreated with ganglion blocker and propranolol
[5] = tested on: PDE (Peak I); assay: Substrate kinetics of PDE (Peak I) from cat heart; assay type: biochemical; details: without calmodulin
Protocol: as §1

[6] = in words, in contrast to Example 1

pIC50 [2] | SMILES | ED50 [4] | also measured
– | Nc1cc(-c2ccncc2)c[nH]c1=O [Amrinone, reference compound] | – | activity in comparison with compound of Example 1 [1, 6]: less active; duration in comparison with compound of Example 1 [1, 6]: shorter duration
6.39 | CC1CC(=O)NN=C1c1ccc(-n2ccc(=O)cc2)cc1 (stereo not shown) [Example 1, 5-Methyl-6-[4-(4-oxo-1,4-dihydropyridin-1-yl)phenyl]-4,5-dihydro-3(2H)-pyridazinone] | – | changes in blood pressure or heart rate ([1]; conscious dogs): without changes in blood pressure or heart rate; duration of positive inotropic responses ([1]; conscious dogs, 3 hours = maximum duration of measurement): more than 3 hours; 'force-rate' selectivity ([1]; conscious dogs, in words): particularly beneficial; effect on histamine-induced bronchoconstriction [3]: reduced the histamine-induced bronchoconstriction
5.29 | O=C1CCC(c2ccc(-n3ccc(=O)cc3)cc2)=NN1 [Example 2, 6-[4-(4-Oxo-1,4-dihydropyridin-1-yl)phenyl]-4,5-dihydro-3(2H)-pyridazinone] | 0.4 µmol/kg | –
5.40 | O=c1ccn(-c2ccc(-c3ccc(=O)[nH]n3)cc2)cc1 [Example 3, 6-[4-(4-Oxo-1,4-dihydropyridin-1-yl)phenyl]-3(2H)-pyridazinone] | 0.47 µmol/kg | –
5.80 | O=C1CSC(c2ccc(-n3ccc(=O)cc3)cc2)=NN1 [Example 4, 2-[4-(4-Oxo-1,4-dihydropyridin-1-yl)phenyl]-4H,6H-1,3,4-thiadiazin-5-one] | 0.06 µmol/kg | –
5.36 | O=C1COC(c2ccc(-n3ccc(=O)cc3)cc2)=NN1 [Example 5, 2-[4-(4-Oxo-1,4-dihydropyridin-1-yl)phenyl]-4H,6H-1,3,4-oxadiazin-5-one] | 0.22 µmol/kg | –
5.76 | O=C1NCC(c2ccc(-n3ccc(=O)cc3)cc2)=NN1 [Example 6, 6-[4-(4-Oxo-1,4-dihydropyridin-1-yl)phenyl]-4,5-dihydro-1,2,4-triazin-3(2H)-one] | 0.23 µmol/kg | –
6.27 | CC1NC(=O)NN=C1c1ccc(-n2ccc(=O)cc2)cc1 (stereo not shown) [Example 7, 6-[4-(4-Oxo-1,4-dihydropyridin-1-yl)phenyl]-5-methyl-4,5-dihydro-1,2,4-triazin-3(2H)-one] | 0.11 µmol/kg | –
5.88 | CC12Cc3cc(-n4ccc(=O)cc4)ccc3C1=NNC(=O)S2 (stereo not shown) [Example 8, 7-(4-Oxo-1,4-dihydropyridin-1-yl)-9a-methyl-9,9a-dihydroindeno[1,2-e][1,3,4]thiadiazin-2(3H)-one] | 0.07 µmol/kg | –
5.90 | O=C1NN=C2c3ccc(-n4ccc(=O)cc4)cc3CC2S1 (stereo not shown) [Example 9, 7-(4-Oxo-1,4-dihydropyridin-1-yl)-9,9a-dihydroindeno[1,2-e][1,3,4]thiadiazin-2(3H)-one] | 0.05 µmol/kg | –
6.36 | CC1SC(=O)NN=C1c1ccc(-n2ccc(=O)cc2)cc1 (stereo not shown) [Example 10, 5-[4-(4-Oxo-1,4-dihydropyridin-1-yl)phenyl]-6-methyl-3H,6H-1,3,4-thiadiazin-2-one] | 0.07 µmol/kg | –
5.58 | O=c1ccn(-c2ccc(-c3c[nH]c(=O)cn3)cc2)cc1 [Example 11, 5-[4-(4-Oxo-1,4-dihydropyridin-1-yl)phenyl]-2(1H)-pyrazinone] | – | –
5.18 | O=C1CC2CCc3cc(-n4ccc(=O)cc4)ccc3C2=NN1 (stereo not shown) [Example 13, 8-(4-Oxo-1,4-dihydropyridin-1-yl)-4,4a, 5,6-tetrahydrobenzo[h]cinnolin-3(2H)-one] | 0.78 µmol/kg | –
5.65 | O=c1ccn(-c2ccc(-c3n[nH]c(=O)s3)cc2)cc1 [Example 14, 5-[4-(4-Oxo-1,4-dihydropyridin-1-yl)phenyl]-1,3,4-thiadiazol-2(3H)-one] | 0.82 µmol/kg | –
6.64 | C[C@@H]1CC(=O)NN=C1c1ccc(-n2ccc(=O)cc2)cc1 [Example 16, (R)-5-Methyl-6-[4-(4-oxo-1,4-dihydropyridin-1-yl)phenyl]-4,5-dihydro-3(2H)-pyridazinone] | – | –
5.59 | C[C@H]1CC(=O)NN=C1c1ccc(-n2ccc(=O)cc2)cc1 [Example 17, (S)-5-Methyl-6-[4-(4-oxo-1,4-dihydropyridin-1-yl)phenyl]-4,5-dihydro-3(2H)-pyridazinone] | – | –
– | Nc1nc2c(ncn2[C@@H]2O[C@@H]3COP(=O)(O)O[C@H]3[C@H]2O)c(=O)[nH]1 [cyclic GMP] | – | Km [5]: 1.8 µM; Relative Vmax [5]: 1.1
